Data: patent US20250296959A1, “B7-H3 TARGETING PEPTIDES AND CONSTRUCTS THEREOF” (Mariana Oncology Inc., priority 2024, published 2025)
Starred links: 1 amine or outer side, 2 acyl side, 3 side chain; linkers in the order of their positions; H or OH if unused. Positions of bridges follow the written chain, without caps; N, C: chain ends. Non-standard residues stand in square brackets, D forms with d. Residues, ends and D or L forms follow the SMILES beside them. *: point of attachment. Ala(1-CH2CO2H-4-piperidyl) = N[C@@H](CC1CCN(CC(=O)O)CC1)C(=O)O; Ala(piperidin-4-yl) = O=C([C@H](CC1CCN([*:3])CC1)N[*:1])[*:2]; DOTA = O=C(O)CN1CCN(CC(=O)O)CCN(CC(=O)*)CCN(CC(=O)O)CC1; Phe(4-NHCONH2) = NC(=O)Nc1ccc(C[C@H](N)C(=O)O)cc1; Phe(4-COOH) = N[C@@H](Cc1ccc(C(=O)O)cc1)C(=O)O; Trp(5-F) = N[C@@H](Cc1c[nH]c2ccc(F)cc12)C(=O)O; X1 = C[C@@H](c1ccccc1)[C@H](N[*:1])C(=O)[*:2]; Trp(1-Me) = Cn1cc(C[C@H](N)C(=O)O)c2ccccc21; Tyr(3-F) = N[C@@H](Cc1ccc(O)c(F)c1)C(=O)O; 1Nal = N[C@@H](Cc1cccc2ccccc12)C(=O)O; Ala(4-THP) = N[C@@H](CC1CCOCC1)C(=O)O; Val(3-OH) = CC(C)(O)[C@H](N)C(=O)O; 4Pal = N[C@@H](Cc1ccncc1)C(=O)O; Cha = N[C@@H](CC1CCCCC1)C(=O)O; pGlu = O=C1CC[C@@H](C(=O)O)N1; Chg = N[C@H](C(=O)O)C1CCCCC1; Tle = CC(C)(C)[C@H](N)C(=O)O; hLeu = CC(C)CC[C@H](N)C(=O)O; NMeS = CN[C@@H](CO)C(=O)O; hSer = N[C@@H](CCO)C(=O)O; Dab = NCC[C@H](N)C(=O)O

target: T1, human 4lg B7-H3 (Homo sapiens, UniProt Q5ZPR3); test: Affinity determination by surface plasmon resonance (SPR) to 4Ig B7-H3; conditions: SPR KD—25° C., 4Ig B7-H3; 25° C. flow cell temperature
T1 sequence (Q5ZPR3 29-534): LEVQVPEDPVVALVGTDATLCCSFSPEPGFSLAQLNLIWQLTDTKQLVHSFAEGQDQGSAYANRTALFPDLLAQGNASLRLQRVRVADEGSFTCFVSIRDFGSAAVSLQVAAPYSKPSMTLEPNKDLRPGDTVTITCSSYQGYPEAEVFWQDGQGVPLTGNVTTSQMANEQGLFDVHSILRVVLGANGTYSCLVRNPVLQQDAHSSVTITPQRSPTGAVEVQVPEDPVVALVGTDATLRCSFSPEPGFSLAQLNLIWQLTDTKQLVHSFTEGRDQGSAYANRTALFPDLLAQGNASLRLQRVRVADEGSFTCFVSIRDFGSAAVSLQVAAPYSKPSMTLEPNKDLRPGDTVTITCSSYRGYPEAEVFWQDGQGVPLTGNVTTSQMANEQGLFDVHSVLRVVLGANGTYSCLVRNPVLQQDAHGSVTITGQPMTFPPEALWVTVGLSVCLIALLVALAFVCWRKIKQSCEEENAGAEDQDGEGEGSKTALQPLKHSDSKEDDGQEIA

Kd [nM]	Structure (SMILES)
< 1	CC(=O)N[C@@H](CCC(C)C)C(=O)N[C@@H](Cc1ccc(O)cc1)C(=O)N[C@H]1CSSC[C@@H](C(=O)N[C@@H](Cc2cn(C)c3ccccc23)C(=O)N[C@@H](Cc2ccccc2)C(=O)N[C@H](C(=O)N[C@H](CCCCNC(=O)CN2CCN(CC(=O)O)CCN(CC(=O)O)CCN(CC(=O)O)CC2)C(N)=O)[C@@H](C)O)NC(=O)[C@H](Cc2ccc(O)cc2)NC(=O)[C@H](C(C)C)NC(=O)[C@H](CC(=O)O)NC(=O)[C@H](Cc2ccc(O)cc2)NC(=O)[C@H](CCCCN)NC(=O)CNC(=O)[C@H](C(C)C)NC1=O [compound 150, Ac-hLeu-Y-C-V-G-K-Y-D-V-Y-C-Trp(Me)-F-Thr-dLys(DOTA)-CONH2] (Ac-[hLeu]YCVGKYDVYC[Trp(1-Me)]FT[dK](DOTA)-NH2; disulfide 3-11)
< 1	CC(=O)N[C@@H](CCC(C)C)C(=O)N[C@@H](Cc1ccc(O)cc1)C(=O)N[C@H]1CSSC[C@@H](C(=O)N[C@@H](Cc2c[nH]c3ccccc23)C(=O)N[C@@H](Cc2ccccc2)C(=O)N[C@H](C(=O)N[C@H](CCCCNC(=O)CN2CCN(CC(=O)O)CCN(CC(=O)O)CCN(CC(=O)O)CC2)C(N)=O)[C@@H](C)O)NC(=O)[C@H](Cc2ccc(O)cc2)NC(=O)[C@H](C2CCCCC2)NC(=O)[C@H](CC(=O)O)NC(=O)[C@H](Cc2ccncc2)NC(=O)[C@H](CCCCN)NC(=O)CNC(=O)[C@H](C(C)(C)C)NC1=O [compound 152, Ac-hLeu-Y-C-Tbg-G-K-4PyA-D-ChG-Y-C-W-F-Thr-dLys(DOTA)-CONH2] (Ac-[hLeu]YC[Tle]GK[4Pal]D[Chg]YCWFT[dK](DOTA)-NH2; disulfide 3-11)
1 to 10	CC(=O)N[C@@H](CCC(C)C)C(=O)N[C@@H](Cc1ccc(O)cc1)C(=O)N[C@H]1CSSC[C@@H](C(=O)N[C@@H](Cc2c[nH]c3ccccc23)C(=O)N[C@@H](Cc2ccccc2)C(=O)N[C@H](C(=O)N[C@H](CCCCNC(=O)CN2CCN(CC(=O)O)CCN(CC(=O)O)CCN(CC(=O)O)CC2)C(N)=O)[C@@H](C)O)NC(=O)[C@H](Cc2ccc(O)c(F)c2)NC(=O)[C@H](C(C)C)NC(=O)[C@H](CC(=O)O)NC(=O)[C@H](Cc2ccc(O)cc2)NC(=O)[C@H](CCCCN)NC(=O)CNC(=O)[C@H](C(C)C)NC1=O [compound 151, Ac-hLeu-Y-C-V-G-K-Y-D-V-3FY-C-W-F-Thr-dLys(DOTA)-CONH2] (Ac-[hLeu]YCVGKYDV[Tyr(3-F)]CWFT[dK](DOTA)-NH2; disulfide 3-11)
< 1	CC(=O)N[C@@H](CCC(C)C)C(=O)N[C@@H](Cc1ccc(O)cc1)C(=O)N[C@H]1CSSC[C@@H](C(=O)N[C@@H](Cc2c[nH]c3ccc(F)cc23)C(=O)N[C@@H](Cc2ccccc2)C(=O)N(C)[C@@H](CO)C(=O)N[C@H](CCCCNC(=O)CN2CCN(CC(=O)O)CCN(CC(=O)O)CCN(CC(=O)O)CC2)C(N)=O)NC(=O)[C@H](Cc2ccc(O)cc2)NC(=O)[C@H](C(C)C)NC(=O)[C@H](CC(=O)O)NC(=O)[C@H](CC2CCCCC2)NC(=O)[C@H](CC2CCNCC2)NC(=O)CNC(=O)[C@H](C(C)C)NC1=O [compound 236, Ac-hLeu-Y-C-V-G-PipAla-CHA-D-V-Y-C-5FW-F-NMeSer-dLys(DOTA)-CONH2] (Ac-[hLeu]YCVG[Ala(piperidin-4-yl)][Cha]DVYC[Trp(5-F)]F[NMeS][dK](DOTA)-NH2; disulfide 3-11)
1 to 10	CC(=O)N[C@@H](CCC(C)C)C(=O)N[C@@H](Cc1ccc(O)cc1)C(=O)N[C@H]1CSSC[C@@H](C(=O)N[C@@H](Cc2c[nH]c3ccc(F)cc23)C(=O)N[C@@H](Cc2ccccc2)C(=O)N[C@H](C(=O)N[C@H](CCCCNC(=O)CN2CCN(CC(=O)O)CCN(CC(=O)O)CCN(CC(=O)O)CC2)C(N)=O)[C@@H](C)O)NC(=O)[C@H](Cc2ccc(O)cc2)NC(=O)[C@H](C(C)C)NC(=O)[C@H](CC(=O)O)NC(=O)[C@H](CCO)NC(=O)[C@H](CCCCN)NC(=O)CNC(=O)[C@H](C(C)C)NC1=O [compound 199, Ac-hLeu-Y-C-V-G-K-hSer-D-V-Y-C-5FW-F-Thr-dLys(DOTA)-CONH2] (Ac-[hLeu]YCVGK[hSer]DVYC[Trp(5-F)]FT[dK](DOTA)-NH2; disulfide 3-11)

same assay, conditions: SPR KD—37° C., 4Ig B7-H3; 37° C. flow cell temperature

Kd [nM]	Structure (SMILES)
1 to 10	CC(C)CC[C@H](NC(=O)[C@@H]1CCC(=O)N1)C(=O)N[C@@H](Cc1ccc(O)cc1)C(=O)N[C@H]1CSSC[C@@H](C(=O)N[C@@H](Cc2c[nH]c3ccc(F)cc23)C(=O)N[C@@H](Cc2ccccc2)C(=O)N[C@H](C(=O)N[C@H](CCCCNC(=O)CN2CCN(CC(=O)O)CCN(CC(=O)O)CCN(CC(=O)O)CC2)C(=O)O)C(C)(C)O)NC(=O)[C@H](Cc2ccc(O)cc2)NC(=O)[C@H](C(C)C)NC(=O)[C@H](CC(=O)O)NC(=O)[C@H](CC2CCOCC2)NC(=O)[C@H](CC2CCNCC2)NC(=O)CNC(=O)[C@H](C(C)(C)C)NC1=O [Cpd #477, Pyroglutamate-hLeu-Y-C-Tbg-G-PipAla-ThpA-D-V-Y-C-5FW-F-hydroxyVal-dLys(DOTA)-COOH] ([pGlu][hLeu]YC[Tle]G[Ala(piperidin-4-yl)][Ala(4-THP)]DVYC[Trp(5-F)]F[Val(3-OH)][dK](DOTA)-OH; disulfide 4-12)
< 1	CC(=O)N[C@@H](CCC(C)C)C(=O)N[C@@H](Cc1ccc(O)cc1)C(=O)N[C@H]1CSSC[C@@H](C(=O)N[C@@H](Cc2c[nH]c3ccc(F)cc23)C(=O)N[C@H](C(=O)N[C@H](C(=O)N[C@@H](CCCCNC(=O)CN2CCN(CC(=O)O)CCN(CC(=O)O)CCN(CC(=O)O)CC2)C(=O)O)C(C)(C)O)[C@@H](C)c2ccccc2)NC(=O)[C@H](Cc2ccc(O)cc2)NC(=O)[C@H](C(C)C)NC(=O)[C@H](CC(=O)O)NC(=O)[C@H](CC2CCOCC2)NC(=O)[C@H](CC2CCNCC2)NC(=O)CNC(=O)[C@H](C(C)(C)C)NC1=O [compound 509, Ac-hLeu-Y-C-Tbg-G-PipAla-ThpA-D-V-Y-C-5FW-[(2S, 3S)beta-Me-Phe]-hydroxyVal-Lys(DOTA)-COOH] (Ac-[hLeu]YC[Tle]G[Ala(piperidin-4-yl)][Ala(4-THP)]DVYC[Trp(5-F)][X1][Val(3-OH)]K(DOTA)-OH; disulfide 3-11)
1 to 10	CC(=O)N[C@@H](CCC(C)C)C(=O)N[C@@H](Cc1ccc(O)cc1)C(=O)N[C@H]1CSSC[C@@H](C(=O)N[C@@H](Cc2c[nH]c3ccc(F)cc23)C(=O)N[C@@H](Cc2ccccc2)C(=O)N2CCC[C@H]2C(=O)N[C@H](CCCCNC(=O)CN2CCN(CC(=O)O)CCN(CC(=O)O)CCN(CC(=O)O)CC2)C(N)=O)NC(=O)[C@H](Cc2ccc(O)cc2)NC(=O)[C@H](C(C)C)NC(=O)[C@H](CC(=O)O)NC(=O)[C@H](Cc2ccc(C(=O)O)cc2)NC(=O)[C@H](CC2CCN(CC(=O)O)CC2)NC(=O)CNC(=O)[C@H](C(C)C)NC1=O [compound 320, Ac-hLeu-Y-C-V-G-[Pip(CH2CO2H)Ala]-4COOHPhe-D-V-Y-C-5FW-F-Pro-dLys(DOTA)-CONH2] (Ac-[hLeu]YCVG[Ala(1-CH2CO2H-4-piperidyl)][Phe(4-COOH)]DVYC[Trp(5-F)]FP[dK](DOTA)-NH2; disulfide 3-11)
< 1	CC(=O)N[C@@H](CCC(C)C)C(=O)N[C@@H](Cc1ccc(O)cc1)C(=O)N[C@H]1CSSC[C@@H](C(=O)N[C@@H](Cc2c[nH]c3ccc(F)cc23)C(=O)N[C@H](C(=O)N[C@H](C(=O)N[C@H](CCCCNC(=O)CN2CCN(CC(=O)O)CCN(CC(=O)O)CCN(CC(=O)O)CC2)C(=O)N[C@H](CCC(=O)O)C(=O)O)C(C)(C)O)[C@@H](C)c2ccccc2)NC(=O)[C@H](Cc2ccc(NC(N)=O)cc2)NC(=O)[C@H](C(C)C)NC(=O)[C@H](CC(=O)O)NC(=O)[C@H](CC2CCOCC2)NC(=O)[C@H](CC2CCNCC2)NC(=O)CNC(=O)[C@H](C(C)(C)C)NC1=O [compound 508, Ac-hLeu-Y-C-Tbg-G-PipAla-ThpA-D-V-Aph(Cbm)-C-5FW-[(2S, 3S)beta-Me-Phe]-hydroxyVal-dLys(DOTA)-dGlu-COOH] (Ac-[hLeu]YC[Tle]G[Ala(piperidin-4-yl)][Ala(4-THP)]DV[Phe(4-NHCONH2)]C[Trp(5-F)][X1][Val(3-OH)][dK](DOTA)[dE]-OH; disulfide 3-11)
10 to 100	CC(=O)N[C@@H](CCC(C)C)C(=O)N[C@@H](Cc1ccc(O)cc1)C(=O)N[C@H]1CSSC[C@@H](C(=O)N[C@@H](Cc2c[nH]c3ccc(F)cc23)C(=O)N[C@@H](Cc2ccccc2)C(=O)N[C@H](C(=O)O)[C@@H](C)O)NC(=O)[C@H](Cc2ccc(O)cc2)NC(=O)[C@H](C(C)C)NC(=O)[C@H](CC(=O)O)NC(=O)[C@H](CC2CCOCC2)NC(=O)[C@H](CCCCNC(=O)CN2CCN(CC(=O)O)CCN(CC(=O)O)CCN(CC(=O)O)CC2)NC(=O)CNC(=O)[C@H](C(C)(C)C)NC1=O [compound 328, Ac-hLeu-Y-C-Tbg-G-Lys(DOTA)-ThpA-D-V-Y-C-5FW-F-Thr-COOH] (Ac-[hLeu]YC[Tle]GK(DOTA)[Ala(4-THP)]DVYC[Trp(5-F)]FT-OH; disulfide 3-11)
< 1	CC(=O)N[C@@H](CCC(C)C)C(=O)N[C@@H](Cc1ccc(O)cc1)C(=O)N[C@H]1CSSC[C@@H](C(=O)N[C@@H](Cc2cccc3ccccc23)C(=O)N[C@@H](Cc2ccccc2)C(=O)N[C@H](C(=O)N[C@H](CCCCNC(=O)CN2CCN(CC(=O)O)CCN(CC(=O)O)CCN(CC(=O)O)CC2)C(=O)O)C(C)(C)O)NC(=O)[C@H](Cc2ccc(O)cc2)NC(=O)[C@H](C(C)C)NC(=O)[C@H](CC(=O)O)NC(=O)[C@H](CC2CCOCC2)NC(=O)[C@H](CCN)NC(=O)CNC(=O)[C@H](C(C)(C)C)NC1=O [compound 435, Ac-hLeu-Y-C-Tbg-G-Dab-ThpA-D-V-Y-C-1Nal-F-hydroxyVal-dLys(DOTA)-COOH] (Ac-[hLeu]YC[Tle]G[Dab][Ala(4-THP)]DVYC[1Nal]F[Val(3-OH)][dK](DOTA)-OH; disulfide 3-11)
